Laboratory results: patent US20020123525A1, “Cardioprotective composition and uses thereof” (GESTILAB INC., priority 1999, published 2002)

Key:
[1] = test system: isolated rat heart; test: Cardioprotection and reperfusion-induced arrhythmias in regional ischemia-reperfusion of isolated rat heart; conditions: Heart (ex vivo)
Experimental: (§1) All experiments were conformed to rules of the Guide for the care and use of laboratory animals published by the U.S. National Institutes of Health (NIH publication No 85-23, revised 1985). Adult male Wistar rats (225-250 g) were anaesthetized with sodium pentobarbitone (0.1 ml/100 g body weight) and then heparinised (500 Ul intra-peritoneally). Hearts were rapidly excised, placed in ice-cold oxygenated KH buffer solution, cleaned and then mounted on a modified Langendorff heart perfusion apparatus.
Hearts were cannulated via the aorta and retrogradely perfused at a constant perfusion pressure (90 mm Hg at 37° C.) with modified KH buffer. […]
(§2) A saline-filled latex balloon was inserted into the left ventricle by way of the AV valve and connected via a polyethylene cannula to a pressure transducer for determination of Left Ventricular Pressure (LVP) and Left Ventricular End Diastolic Pressure (LVEDP). […] The LVP, LVEDP, and ECG were recorded on a Nihon-Kohden polygraph (RM 600); heart rate (HR) was calculated from the electrogram. Coronary flow (CF) was measured by time collection of coronary effluent at various times during the experiment.
Hearts were perfused for a 20 min control period with KH buffer, for stabilization. […] Left ventricular pressure and epicardial ECG were continuously monitored before and during ischemia and reperfusion. […]

[2] = test system: isolated rat heart; test: Cardioprotection in electrolysis-induced ROS on isolated rat heart; conditions: Heart (ex vivo)
Experimental: as §1
Hearts were cannulated via the aorta and retrogradely perfused at a constant perfusion pressure (90 mm Hg at 37° C.) with modified KH buffer. This solution was continuously gassed with a mixture of 95% O2 and 5% CO2 to maintain a pH of 7.4 at 37° C. […]
as §2, with “experiment. […]” for “experiment.”
The cardiodynamic variables were monitored during all the experimental period.

[3] = In vitro antioxidant capacity, inhibition of DPD oxidation by electrolyzed KH buffer
Source text: Oxidation rate of N,N-diethyl-p-phenylenediamine (DPD) by a prooxidant system was used as a general reporter of the amount of ROS generated by that system (Anonymous, 1985; Chahine et al., 1991). Antioxidant capacity of preparations of TRIAD (or of its components) was defined as the extent (%) to which they inhibited the oxidation of DPD by prooxidants. To estimate the antioxidant capacity of TRIAD preparations in the conditions encountered during perfusion of hearts with electrolyzed buffer, 0.6 ml of modified KH not containing (control situation corresponding to 0% inhibition) or containing various concentrations of TRIAD, TRIAD (S2) or their components was subjected to 1-min electrolysis at 10 mA and then mixed with 0.3 ml of the non-electrolyzed counterpart of the solution to which 95 mM DPD was added. Determination of the amount of oxidized DPD was immediately done by reading absorbencies a 515 nm.

CC(=O)C(=O)[O-].[Na+] [Pyruvate, sodium pyruvate]
Effect of fatty acids and vitamin E on action of pyruvate, the component that mostly contributed to antioxidant action [1]: (Pyruvate, ↓) | Effect of fatty acids and vitamin E on action of pyruvate, the component that mostly contributed to antioxidant action [2]: (Pyruvate, ↑) | Effect of fatty acids and vitamin E on action of pyruvate, the component that mostly contributed to antioxidant action ([3]; DPD (in vitro), electrolysis): (Pyruvate, ↑) | Antioxidant capacity (ROS scavenging) in vitro, comparison ([3]; electrolysis pro-oxidant system, DPD method, same concentrations): only a slightly lower ROS scavenging capacity
